System: OPM-2 cell line (human multiple myeloma)
Assay: OPM-2 multiple myeloma subcutaneous xenograft in CB17 SCID mice (tumor volume, doubling time, survival, body weight)
Format: in vivo, mouse
Conditions: fractionated dosing
Description: The OPM-2 cell line (human multiple myeloma) was purchased from American Type Culture Collection (ATCC, Rockville, Md.) and maintained in McCoy's 5a media supplemented with 10% fetal bovine serum. Female CB17 SCID mice approximately 5-7 weeks of age were injected subcutaneously with 1×10^7 viable cells (in ˜100 μL Dulbecco's PBS) into the right flank. The study was initiated when tumor size had reached a pre-determined size (approximately 150-200 mm3). The mice were given potassium iodide at a concentration of 0.1% in their drinking water to block possible free iodide in the drug formulation three days prior to injection and continuing through two weeks post-injection. Mice were randomly assigned to dose groups. Tumor volume was measured with a caliper during the course of the study. Tumor doubling time calculation4 TDT=D×log(2)/log(1+r/100), where D equals days between measurements and r=rate of growth; r/100=(V2−V1/V1)×100%. Statistical analysis: 1-way Anova, Dunnett's test.

For “^131I-labeled 18-(p-iodo-phenyl)octadecyl phosphocholine [CLR 131]”, the “Tumor volume vs control” value (after day 26) was “statistically significant reduction” and the “Tumor volume vs all other treatments” value (at day 52, p<0.05) was “statistically significant reduction”.

From patent US20210106700A1, “Fractionated Dosing of a Phospholipid Ether Analog for the Treatment of Cancer” (Cellectar Biosciences, Inc., priority 2018, published 2021)
